# Data reported in ChEMBL document CHEMBL1135848, “Novel substituted 4-aminomethylpiperidines as potent and selective human beta3-agonists. Part 2: arylethanolaminomethylpiperidines” (Bioorg Med Chem Lett, 2002).
# Columns and labels:
# [1] = target: T1, Beta-3 adrenergic receptor (Homo sapiens, UniProt P13945); assay: Beta-3 adrenergic receptor agonist activity was determined by a measurement of increased cAMP levels in CHO cells expressing human Beta-3-adrenoceptor; IA is Inactive; format: functional, cell-based
# Target sequence in this assay (P13945 whole entry): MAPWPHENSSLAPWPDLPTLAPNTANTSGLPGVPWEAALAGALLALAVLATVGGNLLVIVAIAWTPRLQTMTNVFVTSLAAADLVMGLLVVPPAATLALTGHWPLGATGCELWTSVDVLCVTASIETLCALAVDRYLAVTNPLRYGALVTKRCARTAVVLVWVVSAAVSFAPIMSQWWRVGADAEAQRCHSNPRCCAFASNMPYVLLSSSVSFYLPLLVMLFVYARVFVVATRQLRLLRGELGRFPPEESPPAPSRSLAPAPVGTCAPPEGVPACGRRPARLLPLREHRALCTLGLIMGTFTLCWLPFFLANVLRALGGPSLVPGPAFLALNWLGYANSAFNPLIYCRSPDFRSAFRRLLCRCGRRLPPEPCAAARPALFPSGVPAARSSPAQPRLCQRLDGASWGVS
# [2] = target: T1, Beta-3 adrenergic receptor; assay: Beta-3 adrenergic receptor agonist activity as increased cAMP levels in CHO cells expressing human Beta-3-adrenoceptor; format: functional, cell-based
# Target sequence in this assay (P13945 whole entry): as above
# [3] = target: T2, Beta-2 adrenergic receptor (Homo sapiens, UniProt P07550); assay: Beta-2 adrenergic receptor agonist activity as increased cAMP levels in CHO cells expressing human Beta-2-adrenoceptor; format: functional, cell-based
# T2 sequence (P07550 whole entry): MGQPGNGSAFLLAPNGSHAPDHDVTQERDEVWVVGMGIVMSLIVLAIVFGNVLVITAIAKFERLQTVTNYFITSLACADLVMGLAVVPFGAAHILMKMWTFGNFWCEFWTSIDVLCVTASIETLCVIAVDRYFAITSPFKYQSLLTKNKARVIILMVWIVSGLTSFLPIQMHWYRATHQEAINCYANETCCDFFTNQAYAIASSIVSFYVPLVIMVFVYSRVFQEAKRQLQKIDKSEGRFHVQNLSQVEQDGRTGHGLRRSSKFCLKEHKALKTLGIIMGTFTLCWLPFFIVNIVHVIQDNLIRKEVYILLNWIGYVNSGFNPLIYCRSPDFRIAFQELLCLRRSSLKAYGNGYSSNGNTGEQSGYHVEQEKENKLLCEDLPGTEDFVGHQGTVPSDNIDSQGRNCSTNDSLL
# [4] = target: T3, Beta-1 adrenergic receptor (Homo sapiens, UniProt P08588); assay: Beta-1 adrenergic receptor agonist activity as increased cAMP levels in CHO cells expressing human Beta-1-adrenoceptor; format: functional, cell-based
# Target sequence in this assay (P08588 whole entry): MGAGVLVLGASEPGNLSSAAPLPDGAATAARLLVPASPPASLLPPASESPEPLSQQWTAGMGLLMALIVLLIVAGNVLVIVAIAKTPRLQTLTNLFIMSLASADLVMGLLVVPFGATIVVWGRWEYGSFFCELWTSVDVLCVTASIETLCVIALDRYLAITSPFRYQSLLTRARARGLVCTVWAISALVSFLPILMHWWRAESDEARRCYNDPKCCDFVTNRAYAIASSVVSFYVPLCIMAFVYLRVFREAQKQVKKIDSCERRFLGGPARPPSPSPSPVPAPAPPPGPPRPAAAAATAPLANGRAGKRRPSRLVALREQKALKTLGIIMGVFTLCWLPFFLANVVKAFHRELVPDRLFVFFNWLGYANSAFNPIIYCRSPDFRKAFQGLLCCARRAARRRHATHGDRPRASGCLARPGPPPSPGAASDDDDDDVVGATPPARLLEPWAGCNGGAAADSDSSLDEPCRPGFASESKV
# [5] = target: T1, Beta-3 adrenergic receptor; assay: Human Beta-3 adrenergic receptor intrinsic activity (IA) as maximal response relative to isoproterenol at […]; format: functional
# Target sequence in this assay (P13945 whole entry, looked up): as the sequence (P13945 whole entry) above
# [6] = target: T2, Beta-2 adrenergic receptor; assay: Binding affinity of compound against Beta-2 adrenergic receptor was determined
# [7] = target: T3, Beta-1 adrenergic receptor; assay: (§1) Binding affinity of compound against Beta-1 adrenergic receptor was determined
# Target sequence in this assay (P08588 whole entry): as the sequence (P08588 whole entry) above
# [8] = target: T3, Beta-1 adrenergic receptor; assay: Human Beta-1 adrenergic receptor determined as the maximal response divided by the maximal response of isoproterenol at […].; format: functional
# Target sequence in this assay (P08588 whole entry, looked up): as the sequence (P08588 whole entry) above
# [9] = target: T3, Beta-1 adrenergic receptor; assay: as §1; format: functional
# Target sequence in this assay (P08588 whole entry): as above
# [10] = target: T1, Beta-3 adrenergic receptor; assay: Evaluated in vivo using transgenic mice containing the human Beta-3-Adrenoceptor and increase in themogenesis was determined; format: functional, organism-based; conditions: Mus musculus
# Target sequence in this assay (P13945 whole entry, looked up): as the sequence (P13945 whole entry) above
# [11] = target: T2, Beta-2 adrenergic receptor; assay: Beta-2 adrenergic receptor agonist activity was determined by a measurement of increased cAMP levels in CHO cells expressing human Beta-2 adrenergic receptor; format: functional, cell-based
Structure (SMILES),EC50 [2] [nM],EC50 [3] [nM],EC50 [4] [nM],Intrinsic activity [5],other results
CCCCCCCCNC(=O)Nc1ccc(S(=O)(=O)N2CCC(CNC[C@H](O)c3ccc4[nH]ccc4c3)CC2)cc1,,,,,EC50 [1]: Not Active
CS(=O)(=O)Nc1cc([C@@H](O)CNCC2CCN(S(=O)(=O)c3ccc(NC(=O)N[C@@H](Cc4ccccc4)C(=O)O)cc3)CC2)ccc1O,31,20,520,1.2,
CS(=O)(=O)Nc1cc([C@@H](O)CNCC2CCN(c3ccc(C(=O)N[C@@H](CC(=O)O)C(=O)O)cc3)CC2)ccc1O,,5,580,0.95,
CS(=O)(=O)Nc1cc([C@@H](O)CNCC2CCN(S(=O)(=O)c3ccc(-n4cc(C(=O)O)cn4)cc3)CC2)ccc1O,,10,1000,0.93,
CS(=O)(=O)Nc1cc([C@@H](O)CNCC2CCN(S(=O)(=O)c3ccc(-n4cc(CC(=O)O)c5ccccc54)cc3)CC2)ccc1O,,30,30,0.96,Ki [6]: 180 nM; Ki [7]: 240 nM
CS(=O)(=O)Nc1cc([C@@H](O)CNCC2CCN(c3ccc(C(=O)N[C@@H](Cc4ccccc4)C(=O)O)cc3)CC2)ccc1O,31,20000,520,1.2,Intrinsic activity [8]: 0.6
CCCCCCCCNC(=O)Nc1ccc(S(=O)(=O)N2CCC(CNC[C@H](O)c3cc(NS(C)(=O)=O)c4[nH]ccc4c3)CC2)cc1,,,,,EC50 [1]: Not Active
CCCCCCCCC(=O)Nc1ccc(S(=O)(=O)N2CCC(CNC[C@H](O)c3ccc(O)c(NS(C)(=O)=O)c3)CC2)cc1,6,30,730,1,Ki [9]: 6600 nM; Ki [6]: 140 nM; Increase [10]: 10%
CS(=O)(=O)Nc1cc([C@@H](O)CNCC2CCN(S(=O)(=O)c3ccc(-n4ccc5c(C(=O)O)cccc54)cc3)CC2)ccc1O,,60,50,1,
CS(=O)(=O)Nc1cc([C@@H](O)CNCC2CCN(S(=O)(=O)c3ccc(NC(=O)NCc4cc(F)ccc4F)cc3)CC2)ccc1O,5,,3160,0.93,EC50 [11]: 30 nM
CC(C)N(Cc1cc(F)ccc1F)C(=O)Nc1ccc(S(=O)(=O)N2CCC(CNC[C@H](O)c3ccc(O)c(NS(C)(=O)=O)c3)CC2)cc1,27,12,6300,0.93,
CC(C)C[C@H](NC(=O)c1ccc(N2CCC(CNC[C@H](O)c3ccc(O)c(NS(C)(=O)=O)c3)CC2)cc1)C(=O)O,,1000,1860,1,
